Earlier results as cited in patent publication US20110171184A1, “Method for Introducing a Pna Molecule Conjugated to a Positively Charged Peptide into the Cytosol and/or the Nucleus by Photochemical Internalisation (Pci)” (PCI Biotech AS, priority 2004, published 2011).
Ends that are not written are not given here.

Tested on: cells
Details: 10 μM, after 24 hours, no PCI

**Q.** With “scrambled NLS sequence (SEQ ID NO:4 KKVKPKR) conjugated to PNA: PNA conjugated to scrambled NLS sequence KKVKPKR (Cutrona et al.) (also: conjugated to PNA)” as the substance, how does the “presence of PNA in the nucleus” value read?
**A.** The value was “only minimal amounts of PNA in the nucleus”.
